According to ChEMBL document CHEMBL2157937, “Discovery and optimization of C-2 methyl imidazopyrrolopyridines as potent and orally bioavailable JAK1 inhibitors with selectivity over JAK2” (J Med Chem, 2012):
Values after ≈ are worked out from the molar mass of the structure shown.

Key:
in vitro [1] = conditions: Sprague-Dawley, rat, hepatocytes
physchem [2] = conditions: buffer, pH 7.4
in vivo [3] = conditions: Sprague-Dawley, rat, plasma, po, 2 mg/kg
in vivo [4] = conditions: Sprague-Dawley, rat, po, 0.4 mg/kg
physchem [5] = conditions: octanol/PBS buffer, pH 7.2
physchem [6] = conditions: buffer, pH 2
in vivo [7] = conditions: Sprague-Dawley, rat, iv, 0.4 mg/kg
in vitro [8] = conditions: human, hepatocytes
in vivo [9] = conditions: Sprague-Dawley, rat, po, 2 mg/kg
Rattus norvegicus = organism: Rattus norvegicus; conditions: in vivo, po, 2 mg/kg
[10] = Clearance in rat at 2 mg/kg, po; format: ADME, organism-based; set-up: dose 2 mg/kg, route oral; conditions: in vivo
[11] = AUC in rat at 2 mg/kg, po; format: ADME, organism-based; set-up: dose 2 mg/kg, route oral; conditions: plasma
in vivo [12] = conditions: rat, po, 2 mg/kg
in vivo [13] = conditions: rat, po, 2 mg/kg; remark: listed apart in the source

## Cc1nc2cnc3[nH]ccc3c2n1C1CCNCC1
In vitro [1]
  half-life at 1 µM: > 8 h
Physchem [2]
  solubility thermodynamic at 24 h: > 1500 µM
In vivo [3]
  AUC: 0.12 µM·h
In vivo [4]
  Cmax: 60 nM
Physchem [5]
  logD at 1 h, 10000 µM: 0.1
Physchem [6]
  solubility thermodynamic at 24 h: > 5000 µM
In vivo [7]
  clearance: 43 mL/min/kg
In vitro [8]
  half-life at 1 µM: > 8 h
In vivo [9]
  bioavailability: 4%

## Cc1nc2cnc3[nH]ccc3c2n1C1CCN(CCC#N)CC1
Physchem [5]
  logD at 1 h, 10000 µM: 1.3
In vitro [8]
  half-life at 1 µM: > 8 h

## Cc1nc2cnc3[nH]ccc3c2n1[C@H]1CCCOC1
Physchem [5]
  logD at 1 h, 10000 µM: 1.8
In vitro [8]
  half-life at 1 µM: 6.3 h

## Cc1nc2cnc3[nH]ccc3c2n1[C@H]1CCCNC1
Physchem [5]
  logD at 1 h, 10000 µM: 0.6
In vitro [8]
  half-life at 1 µM: > 8 h

## Cc1nc2cnc3[nH]ccc3c2n1[C@H]1CC[C@H](NCCC#N)CC1
In vitro [1]
  half-life at 1 µM: > 8 h
Physchem [2]
  solubility thermodynamic at 24 h: > 1500 µM
In vivo [3]
  AUC: 0.18 µM·h
In vivo [4]
  Cmax: 150 nM
Physchem [5]
  logD at 1 h, 10000 µM: 0.9
Physchem [6]
  solubility thermodynamic at 24 h: > 5000 µM
In vivo [7]
  clearance: 80 mL/min/kg
In vitro [8]
  half-life at 1 µM: > 8 h
In vivo [9]
  bioavailability: 13%

## Cc1nc2cnc3[nH]ccc3c2n1[C@H]1CC[C@H](NS(C)(=O)=O)CC1
Physchem [5]
  logD at 1 h, 10000 µM: 1.2
In vitro [8]
  half-life at 1 µM: > 8 h

## CC(=O)N[C@H]1CC[C@H](n2c(C)nc3cnc4[nH]ccc4c32)CC1
Physchem [5]
  logD at 1 h, 10000 µM: 1.1

## COC(=O)N[C@H]1CC[C@H](n2c(C)nc3cnc4[nH]ccc4c32)CC1
In vitro [1]
  half-life at 1 µM: 3.5 h
Physchem [2]
  solubility thermodynamic at 24 h: 40 µM (≈ 13.1 µg/mL)
In vivo [3]
  AUC: 1.4 µM·h
In vivo [4]
  Cmax: 550 nM
Physchem [5]
  logD at 1 h, 10000 µM: 2
Physchem [6]
  solubility thermodynamic at 24 h: 2300 µM (≈ 753 µg/mL)
In vivo [7]
  clearance: 40 mL/min/kg
In vitro [8]
  half-life at 1 µM: 3.9 h
In vivo [9]
  bioavailability: 54%

## Cc1nc2cnc3[nH]ccc3c2n1[C@H]1CC[C@H](O)CC1
Physchem [5]
  logD at 1 h, 10000 µM: 1.4
In vitro [8]
  half-life at 1 µM: > 8 h

## Cc1nc2cnc3[nH]ccc3c2n1[C@H]1CC[C@@H](O)CC1
Physchem [5]
  logD at 1 h, 10000 µM: 1.4
In vitro [8]
  half-life at 1 µM: > 8 h

## Cc1nc2cnc3[nH]ccc3c2n1[C@@H]1CCNC[C@H]1F (relative stereo)
In vitro [1]
  half-life at 1 µM: 1.6 h
Physchem [2]
  solubility thermodynamic at 24 h: > 1500 µM
In vivo [3]
  AUC: 5.3 µM·h
In vivo [4]
  Cmax: 4500 nM
Physchem [5]
  logD at 1 h, 10000 µM: 1.2
In vivo [7]
  clearance: 40 mL/min/kg
In vitro [8]
  half-life at 1 µM: 1.8 h
Rattus norvegicus
  F: 172%

## Cc1nc2cnc3[nH]ccc3c2n1[C@@H]1CCNC[C@@H]1F (relative stereo)
Physchem [5]
  logD at 1 h, 10000 µM: 0.7

## Cc1nc2cnc3[nH]ccc3c2n1[C@@H]1CCCC[C@H]1O (relative stereo)
Physchem [5]
  logD at 1 h, 10000 µM: 1.6
In vitro [8]
  half-life at 1 µM: > 8 h

## C[C@@H]1CCN(C(=O)CC#N)C[C@@H]1N(C)c1ncnc2[nH]ccc12 [TOFACITINIB]
[10]
  CL/F: 43 mL/min/kg
[11]
  AUC: 2.1 µM·h
In vivo [12]
  bioavailability: 87%
In vivo [13]
  Cmax: 1700 nM
